Legend:
Test in all cases: KINOMEscan
Type in all cases: binding
Settings in all cases: read-out: % Ctrl
ABL2 = target: T1, ABL2 (Homo sapiens, UniProt P42684)
T1 construct: purchased DiscoveRx KINOMEscan
How it was run: (§1)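 Competition binding panel of 442 non-mutant kinases: test compound at 5 and 10 μM competed with an active-site-directed ligand for 1 h with shaking. Bound kinase was eluted with 0.5 μM ligand and quantified by qPCR; %Ctrl = (compound − positive control)/(DMSO − positive control) × 100, lower meaning tighter binding.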

ACVR1B = target: T2, ACVR1B (Homo sapiens, UniProt P36896)
T2 construct: purchased DiscoveRx KINOMEscan
How it was run: as §1

AMPK-alpha2 = target: T3, AMPK-alpha2 (Homo sapiens, UniProt P54646)
T3 construct: purchased DiscoveRx KINOMEscan
How it was run: as §1

BRSK1 = target: T4, BRSK1 (Homo sapiens, UniProt Q8TDC3)
T4 construct: purchased DiscoveRx KINOMEscan
How it was run: as §1

CDK7 = target: T5, CDK7 (Homo sapiens, UniProt P50613)
T5 construct: purchased DiscoveRx KINOMEscan
How it was run: as §1

DCAMKL1 = target: T6, DCAMKL1 (Homo sapiens, UniProt O15075)
T6 construct: purchased DiscoveRx KINOMEscan
How it was run: as §1

DDR1 = target: T7, DDR1 (Homo sapiens, UniProt Q08345)
T7 construct: purchased DiscoveRx KINOMEscan
T7 sequence (Q08345 19-913): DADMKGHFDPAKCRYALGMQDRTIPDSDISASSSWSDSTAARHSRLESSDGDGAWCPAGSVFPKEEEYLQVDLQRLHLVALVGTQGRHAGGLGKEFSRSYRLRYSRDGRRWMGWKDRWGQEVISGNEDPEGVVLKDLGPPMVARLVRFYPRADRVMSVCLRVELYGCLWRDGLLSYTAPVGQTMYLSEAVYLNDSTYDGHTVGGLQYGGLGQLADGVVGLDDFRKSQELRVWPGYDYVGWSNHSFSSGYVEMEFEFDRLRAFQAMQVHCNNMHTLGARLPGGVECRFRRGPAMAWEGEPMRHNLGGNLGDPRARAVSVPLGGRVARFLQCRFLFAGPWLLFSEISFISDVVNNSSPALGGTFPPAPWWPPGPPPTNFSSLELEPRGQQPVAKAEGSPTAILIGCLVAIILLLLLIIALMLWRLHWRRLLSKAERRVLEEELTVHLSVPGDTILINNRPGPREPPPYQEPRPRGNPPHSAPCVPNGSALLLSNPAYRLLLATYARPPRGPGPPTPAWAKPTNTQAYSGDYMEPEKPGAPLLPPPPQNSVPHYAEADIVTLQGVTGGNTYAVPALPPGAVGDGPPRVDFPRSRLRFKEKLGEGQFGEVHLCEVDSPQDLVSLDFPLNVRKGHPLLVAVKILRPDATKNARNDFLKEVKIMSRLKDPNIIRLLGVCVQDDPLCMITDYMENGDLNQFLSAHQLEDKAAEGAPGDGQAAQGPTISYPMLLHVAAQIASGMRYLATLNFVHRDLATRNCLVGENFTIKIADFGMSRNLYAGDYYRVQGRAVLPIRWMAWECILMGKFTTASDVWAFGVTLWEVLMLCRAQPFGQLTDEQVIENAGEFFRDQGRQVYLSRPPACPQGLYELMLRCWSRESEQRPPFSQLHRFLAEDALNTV
How it was run: as §1

EPHA8 = target: T8, EPHA8 (Homo sapiens, UniProt P29322)
T8 construct: purchased DiscoveRx KINOMEscan
T8 sequence (P29322 28-1005): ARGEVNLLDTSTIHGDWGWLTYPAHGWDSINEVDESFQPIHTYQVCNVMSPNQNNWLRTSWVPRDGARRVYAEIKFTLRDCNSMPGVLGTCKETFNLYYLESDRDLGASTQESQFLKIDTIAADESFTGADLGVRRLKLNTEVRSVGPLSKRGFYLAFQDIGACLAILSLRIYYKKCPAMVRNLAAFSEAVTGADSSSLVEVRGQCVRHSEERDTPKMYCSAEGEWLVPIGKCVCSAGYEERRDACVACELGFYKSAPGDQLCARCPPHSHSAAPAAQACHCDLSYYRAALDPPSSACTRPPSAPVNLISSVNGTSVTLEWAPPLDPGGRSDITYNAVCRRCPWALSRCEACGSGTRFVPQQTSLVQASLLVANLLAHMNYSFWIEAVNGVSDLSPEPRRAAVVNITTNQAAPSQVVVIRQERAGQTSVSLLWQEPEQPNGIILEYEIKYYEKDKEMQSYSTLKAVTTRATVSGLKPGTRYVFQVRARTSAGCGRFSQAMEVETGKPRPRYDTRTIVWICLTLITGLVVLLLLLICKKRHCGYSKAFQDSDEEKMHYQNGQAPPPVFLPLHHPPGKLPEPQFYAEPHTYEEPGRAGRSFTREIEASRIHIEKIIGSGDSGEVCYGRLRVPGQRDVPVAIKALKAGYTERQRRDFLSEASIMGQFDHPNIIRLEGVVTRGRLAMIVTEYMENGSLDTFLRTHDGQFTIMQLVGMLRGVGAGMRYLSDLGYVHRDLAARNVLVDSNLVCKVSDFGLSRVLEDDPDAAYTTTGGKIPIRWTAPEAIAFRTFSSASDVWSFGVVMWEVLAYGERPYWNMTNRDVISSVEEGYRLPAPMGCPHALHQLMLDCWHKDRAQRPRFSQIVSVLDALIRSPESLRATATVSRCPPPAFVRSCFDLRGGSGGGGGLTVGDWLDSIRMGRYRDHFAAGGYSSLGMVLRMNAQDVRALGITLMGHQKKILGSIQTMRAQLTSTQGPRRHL
How it was run: as §1

GSK3B = target: T9, GSK3B (Homo sapiens, UniProt P49841)
T9 construct: purchased DiscoveRx KINOMEscan
How it was run: as §1

ICK = target: T10, ICK (Homo sapiens, UniProt Q9UPZ9)
T10 construct: purchased DiscoveRx KINOMEscan
How it was run: as §1

JNK3 = target: T11, JNK3 (Homo sapiens, UniProt P53779)
T11 construct: purchased DiscoveRx KINOMEscan
How it was run: as §1

KIT = target: T12, KIT (Homo sapiens, UniProt P10721)
T12 construct: purchased DiscoveRx KINOMEscan
How it was run: as §1

LATS2 = target: T13, LATS2 (Homo sapiens, UniProt Q9NRM7)
T13 construct: purchased DiscoveRx KINOMEscan
How it was run: as §1

MAP3K3 = target: T14, MAP3K3 (Homo sapiens, UniProt Q99759)
T14 construct: purchased DiscoveRx KINOMEscan
How it was run: as §1

MST2 = target: T15, MST2 (Homo sapiens, UniProt Q13188)
T15 construct: purchased DiscoveRx KINOMEscan
How it was run: as §1

MYO3A = target: T16, MYO3A (Homo sapiens, UniProt Q8NEV4)
T16 construct: purchased DiscoveRx KINOMEscan
How it was run: as §1

NEK6 = target: T17, NEK6 (Homo sapiens, UniProt Q9HC98)
T17 construct: purchased DiscoveRx KINOMEscan
T17 sequence (Q9HC98 whole entry): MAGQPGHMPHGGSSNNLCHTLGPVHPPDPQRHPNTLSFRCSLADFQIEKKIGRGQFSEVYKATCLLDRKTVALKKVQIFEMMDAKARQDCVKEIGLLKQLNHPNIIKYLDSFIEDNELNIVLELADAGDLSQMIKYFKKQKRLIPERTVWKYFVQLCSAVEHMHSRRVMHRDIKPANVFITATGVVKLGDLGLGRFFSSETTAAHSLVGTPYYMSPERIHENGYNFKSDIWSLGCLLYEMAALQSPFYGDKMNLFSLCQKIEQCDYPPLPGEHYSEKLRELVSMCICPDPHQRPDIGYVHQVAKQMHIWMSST
How it was run: as §1

NLK = target: T18, NLK (Homo sapiens, UniProt Q9UBE8)
T18 construct: purchased DiscoveRx KINOMEscan
T18 sequence (Q9UBE8 whole entry): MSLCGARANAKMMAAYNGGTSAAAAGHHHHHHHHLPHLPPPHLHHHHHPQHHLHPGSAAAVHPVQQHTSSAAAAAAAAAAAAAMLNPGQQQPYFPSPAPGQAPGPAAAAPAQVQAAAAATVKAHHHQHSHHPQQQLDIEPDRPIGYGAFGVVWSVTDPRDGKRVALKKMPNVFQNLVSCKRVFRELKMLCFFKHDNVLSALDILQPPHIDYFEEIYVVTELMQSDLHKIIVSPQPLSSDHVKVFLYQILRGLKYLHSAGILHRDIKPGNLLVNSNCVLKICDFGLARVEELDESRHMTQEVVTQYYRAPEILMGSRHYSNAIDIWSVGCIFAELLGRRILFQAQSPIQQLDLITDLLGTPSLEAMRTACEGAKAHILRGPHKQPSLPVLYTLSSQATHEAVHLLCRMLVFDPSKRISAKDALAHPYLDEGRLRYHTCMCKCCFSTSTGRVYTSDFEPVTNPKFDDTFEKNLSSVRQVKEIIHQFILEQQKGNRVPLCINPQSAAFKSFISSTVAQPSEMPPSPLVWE
How it was run: as §1

OSR1 = target: T19, OSR1 (Homo sapiens, UniProt O95747)
T19 construct: purchased DiscoveRx KINOMEscan
T19 sequence (O95747 whole entry): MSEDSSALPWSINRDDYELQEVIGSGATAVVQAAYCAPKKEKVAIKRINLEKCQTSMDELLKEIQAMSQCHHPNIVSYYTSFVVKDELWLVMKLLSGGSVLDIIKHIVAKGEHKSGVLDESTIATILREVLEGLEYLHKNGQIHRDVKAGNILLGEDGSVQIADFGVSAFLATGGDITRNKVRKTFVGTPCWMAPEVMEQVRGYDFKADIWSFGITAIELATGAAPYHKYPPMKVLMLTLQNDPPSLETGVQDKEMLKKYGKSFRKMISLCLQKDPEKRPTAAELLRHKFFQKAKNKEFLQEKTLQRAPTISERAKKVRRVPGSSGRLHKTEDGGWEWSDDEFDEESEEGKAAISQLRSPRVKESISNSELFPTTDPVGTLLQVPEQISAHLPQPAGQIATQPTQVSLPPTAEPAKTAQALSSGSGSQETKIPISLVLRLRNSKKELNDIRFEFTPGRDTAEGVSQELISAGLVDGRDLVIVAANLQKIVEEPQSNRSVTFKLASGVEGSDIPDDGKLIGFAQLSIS
How it was run: as §1

PDGFRB = target: T20, PDGFRB (Homo sapiens, UniProt P09619)
T20 construct: purchased DiscoveRx KINOMEscan
How it was run: as §1

PIK3CA(I800L) = target: T21, PIK3CA(I800L) (Homo sapiens, UniProt P42336, I800L)
T21 construct: purchased DiscoveRx KINOMEscan
T21 sequence (P42336 whole entry I800L): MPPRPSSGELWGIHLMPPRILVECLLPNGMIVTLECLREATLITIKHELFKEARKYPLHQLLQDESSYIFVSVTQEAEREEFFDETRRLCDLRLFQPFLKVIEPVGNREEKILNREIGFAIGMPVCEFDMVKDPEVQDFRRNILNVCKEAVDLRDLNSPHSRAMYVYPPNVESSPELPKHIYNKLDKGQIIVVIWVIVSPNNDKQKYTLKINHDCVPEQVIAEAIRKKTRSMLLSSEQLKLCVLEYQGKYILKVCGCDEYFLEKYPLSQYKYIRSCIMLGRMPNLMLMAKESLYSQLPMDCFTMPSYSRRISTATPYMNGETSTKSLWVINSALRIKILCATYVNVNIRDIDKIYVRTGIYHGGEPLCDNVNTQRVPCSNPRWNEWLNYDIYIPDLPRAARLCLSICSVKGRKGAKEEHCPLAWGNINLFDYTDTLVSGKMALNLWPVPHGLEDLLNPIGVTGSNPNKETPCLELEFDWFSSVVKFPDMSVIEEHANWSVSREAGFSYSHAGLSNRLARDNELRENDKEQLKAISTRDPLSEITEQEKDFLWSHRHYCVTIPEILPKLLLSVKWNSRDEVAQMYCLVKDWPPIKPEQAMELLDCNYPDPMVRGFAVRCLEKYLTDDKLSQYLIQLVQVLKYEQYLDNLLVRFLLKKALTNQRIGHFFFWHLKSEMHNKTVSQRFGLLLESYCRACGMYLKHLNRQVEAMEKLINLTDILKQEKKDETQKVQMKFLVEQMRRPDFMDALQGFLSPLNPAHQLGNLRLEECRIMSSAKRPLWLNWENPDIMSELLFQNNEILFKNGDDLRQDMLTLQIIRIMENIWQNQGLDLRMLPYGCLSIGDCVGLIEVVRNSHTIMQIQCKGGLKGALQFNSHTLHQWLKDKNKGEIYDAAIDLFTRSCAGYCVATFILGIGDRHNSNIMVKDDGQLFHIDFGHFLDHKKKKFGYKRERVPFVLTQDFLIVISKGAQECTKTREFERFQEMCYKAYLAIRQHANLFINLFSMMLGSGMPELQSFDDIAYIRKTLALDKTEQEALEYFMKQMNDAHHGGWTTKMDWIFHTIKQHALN

PIK3CA(M1043I) = target: T22, PIK3CA(M1043I) (Homo sapiens, UniProt P42336, M1043I)
T22 construct: purchased DiscoveRx KINOMEscan
T22 sequence (P42336 whole entry M1043I): as the sequence (P42336 whole entry I800L) above, with L800I, M1043I counted along it

PIK4CB = target: T23, PIK4CB (Homo sapiens, UniProt Q9UBF8)
T23 construct: purchased DiscoveRx KINOMEscan
How it was run: as §1

PRKG1 = target: T24, PRKG1 (Homo sapiens, UniProt Q13976)
T24 construct: purchased DiscoveRx KINOMEscan
How it was run: as §1

RET(V804M) = target: T25, RET(V804M) (Homo sapiens, UniProt P07949, V804M)
T25 construct: purchased DiscoveRx KINOMEscan

ROCK2 = target: T26, ROCK2 (Homo sapiens, UniProt O75116)
T26 construct: purchased DiscoveRx KINOMEscan
How it was run: as §1

[1] = target: T27, RSK2(Kin.Dom.1-N-terminal) (Homo sapiens, UniProt P51812)
T27 construct: RSK2(Kin.Dom.1-N-terminal); purchased DiscoveRx KINOMEscan
T27 sequence (P51812 1-397 limits assumed): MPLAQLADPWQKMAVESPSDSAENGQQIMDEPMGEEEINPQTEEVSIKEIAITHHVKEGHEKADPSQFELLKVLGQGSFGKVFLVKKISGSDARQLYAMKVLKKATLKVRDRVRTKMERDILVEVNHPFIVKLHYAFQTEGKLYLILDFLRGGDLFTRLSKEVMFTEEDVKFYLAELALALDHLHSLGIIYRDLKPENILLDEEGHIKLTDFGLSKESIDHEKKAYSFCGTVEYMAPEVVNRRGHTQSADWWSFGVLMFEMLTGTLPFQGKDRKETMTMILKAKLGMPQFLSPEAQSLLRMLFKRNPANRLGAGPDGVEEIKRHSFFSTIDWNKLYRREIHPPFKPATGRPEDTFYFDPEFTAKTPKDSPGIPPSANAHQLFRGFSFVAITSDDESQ
How it was run: as §1

S6K1 = target: T28, S6K1 (Homo sapiens, UniProt P23443)
T28 construct: purchased DiscoveRx KINOMEscan
How it was run: as §1

TRKA = target: T29, TRKA (Homo sapiens, UniProt P04629)
T29 construct: purchased DiscoveRx KINOMEscan
How it was run: as §1

TSSK1B = target: T30, TSSK1B (Homo sapiens, UniProt Q9BXA7)
T30 construct: purchased DiscoveRx KINOMEscan
How it was run: as §1

Compound: Cc1ccc(C2=Nc3cccnc3S(=O)(=O)c3ccccc32)cc1 [TBPT, 6-(p-tolyl)benzo[f] pyrido[2,3-b][1,4] thiazepine 11,11-dioxide]
- remaining binding at 5 µM (ABL2; 5 μM): 80%
- remaining binding at 10 µM (ABL2; 10 μM): 97%
- remaining binding at 5 µM (ACVR1B; 5 μM): 98%
- remaining binding at 10 µM (ACVR1B; 10 μM): 91%
- remaining binding at 5 µM (AMPK-alpha2; 5 μM): 81%
- remaining binding at 10 µM (AMPK-alpha2; 10 μM): 95%
- remaining binding at 5 µM (BRSK1; 5 μM): 100%
- remaining binding at 10 µM (BRSK1; 10 μM): 97%
- remaining binding at 5 µM (CDK7; 5 μM): 83%
- remaining binding at 10 µM (CDK7; 10 μM): 100%
- remaining binding at 5 µM (DCAMKL1; 5 μM): 100%
- remaining binding at 10 µM (DCAMKL1; 10 μM): 89%
- remaining binding at 5 µM (DDR1; 5 μM): 100%
- remaining binding at 10 µM (DDR1; 10 μM): 92%
- remaining binding at 5 µM (EPHA8; 5 μM): 96%
- remaining binding at 10 µM (EPHA8; 10 μM): 93%
- remaining binding at 5 µM (GSK3B; 5 μM): 89%
- remaining binding at 10 µM (GSK3B; 10 μM): 100%
- remaining binding at 5 µM (ICK; 5 μM): 100%
- remaining binding at 10 µM (ICK; 10 μM): 100%
- remaining binding at 5 µM (JNK3; 5 μM): 84%
- remaining binding at 10 µM (JNK3; 10 μM): 95%
- remaining binding at 5 µM (KIT; 5 μM): 72%
- remaining binding at 10 µM (KIT; 10 μM): 100%
- remaining binding at 5 µM (LATS2; 5 μM): 100%
- remaining binding at 10 µM (LATS2; 10 μM): 100%
- remaining binding at 5 µM (MAP3K3; 5 μM): 79%
- remaining binding at 10 µM (MAP3K3; 10 μM): 92%
- remaining binding at 5 µM (MST2; 5 μM): 63%
- remaining binding at 10 µM (MST2; 10 μM): 100%
- remaining binding at 5 µM (MYO3A; 5 μM): 100%
- remaining binding at 10 µM (MYO3A; 10 μM): 90%
- remaining binding at 5 µM (NEK6; 5 μM): 96%
- remaining binding at 10 µM (NEK6; 10 μM): 95%
- remaining binding at 5 µM (NLK; 5 μM): 83%
- remaining binding at 10 µM (NLK; 10 μM): 89%
- remaining binding at 5 µM (OSR1; 5 μM): 100%
- remaining binding at 10 µM (OSR1; 10 μM): 87%
- remaining binding at 5 µM (PDGFRB; 5 μM): 68%
- remaining binding at 10 µM (PDGFRB; 10 μM): 100%
- remaining binding at 5 µM (PIK3CA(I800L); 5 μM): 98%
- remaining binding at 10 µM (PIK3CA(I800L); 10 μM): 72%
- remaining binding at 5 µM (PIK3CA(M1043I); 5 μM): 100%
- remaining binding at 10 µM (PIK3CA(M1043I); 10 μM): 100%
- remaining binding at 5 µM (PIK4CB; 5 μM): 100%
- remaining binding at 10 µM (PIK4CB; 10 μM): 93%
- remaining binding at 5 µM (PRKG1; 5 μM): 96%
- remaining binding at 10 µM (PRKG1; 10 μM): 100%
- remaining binding at 5 µM (RET(V804M); 5 μM): 84%
- remaining binding at 10 µM (RET(V804M); 10 μM): 96%
- remaining binding at 5 µM (ROCK2; 5 μM): 100%
- remaining binding at 10 µM (ROCK2; 10 μM): 92%
- remaining binding at 5 µM ([1]; 5 μM): 98%
- remaining binding at 10 µM ([1]; 10 μM): 100%
- remaining binding at 5 µM (S6K1; 5 μM): 100%
- remaining binding at 10 µM (S6K1; 10 μM): 88%
- remaining binding at 5 µM (TRKA; 5 μM): 100%
- remaining binding at 10 µM (TRKA; 10 μM): 97%
- remaining binding at 5 µM (TSSK1B; 5 μM): 90%
- remaining binding at 10 µM (TSSK1B; 10 μM): 100%
